This note sets out measurements from patent publication US8853230B2, “Inhibitors of JAK” (Portola Pharmaceuticals, Inc., priority 2009, dated 2014).

For one assay, the target named is Syk (Homo sapiens, UniProt P43405). The assay can be described thus: Syk IC50 (Table 1; method not given). In kind it is biochemical.
The next assay has as its target T1, JAK1 (Homo sapiens, UniProt P23458).
T1 construct: 5 μl of catalytic domain recombinant Kinase enzyme+Tyr peptide substrate (Invitrogen, Calif.); purchased Invitrogen
Put plainly: Z'-LYTE kinase assay, JAK1 tyrosine phosphorylation activity. In kind it is biochemical. The following applies: read-out: JAK 1 IC50. An outline of the steps: (§1)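 Catalytic-domain recombinant enzymes phosphorylate a coumarin/fluorescein-labelled Tyr6 peptide for 1 h at room temperature in the presence of ATP and compound (1% DMSO). Development Reagent then cleaves non-phosphorylated peptide over 1 h, and emission ratio 445/520 nm (ex 400 nm) gives percent phosphorylation; IC50 by 4-parameter logistic model.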

The target of another assay is T2, JAK2 (Homo sapiens, UniProt O60674).
T2 construct: 5 μl of catalytic domain recombinant Kinase enzyme+Tyr peptide substrate (Invitrogen, Calif.); purchased Invitrogen
The assay can be described thus: Z'-LYTE kinase assay, JAK2 tyrosine phosphorylation activity. In kind it is biochemical. A digest of the protocol: as §1

A further assay has as its target T3, JAK3 (Homo sapiens, UniProt P52333).
T3 construct: 5 μl of catalytic domain recombinant Kinase enzyme+Tyr peptide substrate (Invitrogen, Calif.); purchased Invitrogen
Put plainly: Z'-LYTE kinase assay, JAK3 tyrosine phosphorylation activity. The class given is biochemical. A digest of the protocol: as §1

For the next assay, the target named is T4, TYK2 (Homo sapiens, UniProt P29597).
T4 construct: 5 μl of catalytic domain recombinant Kinase enzyme+Tyr peptide substrate (Invitrogen, Calif.); purchased Invitrogen
T4 sequence (P29597 897-1176 limits assumed): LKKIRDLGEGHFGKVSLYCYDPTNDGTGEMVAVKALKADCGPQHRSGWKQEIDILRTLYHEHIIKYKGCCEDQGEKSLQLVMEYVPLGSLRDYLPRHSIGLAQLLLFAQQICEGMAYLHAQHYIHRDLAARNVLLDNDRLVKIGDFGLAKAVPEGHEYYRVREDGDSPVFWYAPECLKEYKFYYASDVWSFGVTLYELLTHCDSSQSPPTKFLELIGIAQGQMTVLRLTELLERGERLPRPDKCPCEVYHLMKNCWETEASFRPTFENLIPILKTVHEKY
Put plainly: Z'-LYTE kinase assay, TYK2 tyrosine phosphorylation activity. The class given is biochemical. A digest of the protocol: as §1

The test system of assay [1] is IL4-induced phospho STAT6 formation in Ramos B lymphocytes. The assay can be described thus: Inhibition of IL4-induced phospho STAT6 formation in Ramos B lymphocytes (flow cytometry). The class given is cell-based, human. The following applies: for inhibition at 0.2 µM / inhibition at 1 µM: Homo sapiens; for inhibition at 0.2 µM: read-out: % Inhibition of IL-4 Induced STAT6 Phosphorylation 200 nM; for inhibition at 1 µM: read-out: % Inhibition of IL-4 Induced STAT6 Phosphorylation 1 μM. A digest of the protocol: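 Read-out: phospho-STAT6 (Y641) mean fluorescent intensity by intracellular flow cytometry, expressed as inhibition of the IL4-induced signal. Ramos B lymphocytes were given compound for 1 h at 37°C, then 1 ng/ml IL4 for 10 min, before fixation and methanol permeabilization.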

T1 sequence (P23458 875-1153 limits assumed): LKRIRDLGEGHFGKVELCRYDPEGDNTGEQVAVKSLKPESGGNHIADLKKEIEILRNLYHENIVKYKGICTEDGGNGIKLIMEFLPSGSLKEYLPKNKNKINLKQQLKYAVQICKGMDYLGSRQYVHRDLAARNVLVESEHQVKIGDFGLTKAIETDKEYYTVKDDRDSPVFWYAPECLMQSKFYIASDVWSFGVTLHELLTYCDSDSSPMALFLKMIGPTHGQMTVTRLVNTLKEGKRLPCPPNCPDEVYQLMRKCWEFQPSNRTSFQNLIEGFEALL
T2 sequence (O60674 849-1124 limits assumed): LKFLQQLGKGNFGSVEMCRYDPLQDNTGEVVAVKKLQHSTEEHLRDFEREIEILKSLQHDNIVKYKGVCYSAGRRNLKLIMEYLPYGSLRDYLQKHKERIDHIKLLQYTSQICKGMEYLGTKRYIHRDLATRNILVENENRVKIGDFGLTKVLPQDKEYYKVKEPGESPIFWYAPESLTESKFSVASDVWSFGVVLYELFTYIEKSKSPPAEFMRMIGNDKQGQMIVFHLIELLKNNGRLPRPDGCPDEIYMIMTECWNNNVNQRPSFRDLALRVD
T3 sequence (P52333 822-1111 limits assumed): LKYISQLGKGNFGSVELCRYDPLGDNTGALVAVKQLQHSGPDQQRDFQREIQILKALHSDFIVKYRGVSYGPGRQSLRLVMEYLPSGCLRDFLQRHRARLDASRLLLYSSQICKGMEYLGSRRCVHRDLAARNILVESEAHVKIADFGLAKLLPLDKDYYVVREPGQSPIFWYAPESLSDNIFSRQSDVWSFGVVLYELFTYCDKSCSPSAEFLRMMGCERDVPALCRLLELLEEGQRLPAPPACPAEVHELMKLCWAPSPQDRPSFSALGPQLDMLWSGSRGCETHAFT

For orientation: IC50 means the concentration needed to halve the response being measured. On Syk, `C#CCNc1nc(Nc2cccc(NC(C)=O)c2)ncc1C(N)=O` [Example 10, 2-(3-acetamidophenylamino)-4-(prop-2-ynylamino)pyrimidine-5-carboxamide] displayed an IC50 of 100 to 1000 nM.

The inhibition is how much of the control response was suppressed. Regarding `CC(=O)Nc1cc(Nc2ncc(C(N)=O)c(NCc3ccccc3)n2)ccc1F` [Example 156, 2-(3-acetamido-4-fluorophenylamino)-4-(benzylamino)pyrimidine-5-carboxamide], the half-inhibitory concentration (IC50) at JAK1 is 10 to 100 nM; at JAK2 it was 10 to 100 nM; against JAK3, 1 to 10 nM; at TYK2 it was 1 to 10 nM. Moreover, the inhibition at 0.2 µM in assay [1] (200 nM compound) came out at 28%. Further, the inhibition at 1 µM in assay [1] (1 μM compound) was 71.3%.

For “2-(3-(azetidine-1-carboxamido)phenylamino)-4-(benzylamino)pyrimidine-5-carboxamide [Example 219]”, the IC50 on JAK1 lay in the range of 10 to 100 nM; at JAK2 it was 10 to 100 nM; on JAK3, 1 to 10 nM; on TYK2, 10 to 100 nM. For the same molecule, the “% Inhibition of IL-4 Induced STAT6 Phosphorylation 200 nM” value in assay [1] (200 nM compound) is 19.0%. Besides, the “% Inhibition of IL-4 Induced STAT6 Phosphorylation 1 μM” value in assay [1] (1 μM compound) is 65.3%.

Take `NC(=O)c1cnc(Nc2ccc(Cl)c(NC(=O)N3CCCCC3)c2)nc1NCc1ccccc1` [Example 209, 4-(benzylamino)-2-(4-chloro-3-(piperidine-1-carboxamido)phenylamino)pyrimidine-5-carboxamide]: the IC50 on JAK1 is over 1000 nM; at JAK2, over 1000 nM; at JAK3, 1 to 10 nM; at TYK2, 100 to 1000 nM. Besides, the inhibition at 0.2 µM in assay [1] (200 nM compound) is 0.3%. Besides, the inhibition at 1 µM in assay [1] (1 μM compound) worked out at 1%.

Regarding `NC(=O)c1cnc(Nc2cccc(NC(=O)N3CC=CC3)c2)nc1NCc1ccccc1` [Example 142, 4-(benzylamino)-2-(3-(2,5-dihydro-1H-pyrrole-1-carboxamido)phenylamino)pyrimidine-5-carboxamide], the IC50 on JAK1 is 10 to 100 nM; against JAK2 it was 10 to 100 nM; against JAK3, 1 to 10 nM; against TYK2, 1 to 10 nM. Besides, the inhibition at 0.2 µM in assay [1] (200 nM compound) was 41.3%. Moreover, the inhibition at 1 µM in assay [1] (1 μM compound) worked out at 79.3%.

Turning to `NC(=O)c1cnc(Nc2ccc(Cl)c(NC(=O)N3CCOCC3)c2)nc1NCc1ccccc1` [Example 182, N-(5-(4-(benzylamino)-5-carbamoylpyrimidin-2-ylamino)-2-chlorophenyl)morpholine-4-carboxamide], the IC50 on JAK1 lay within 10 to 100 nM; on JAK2 it was 10 to 100 nM; against JAK3, 1 to 10 nM; against TYK2, 1 to 10 nM. Moreover, in assay [1] (200 nM compound), the inhibition at 0.2 µM stood at 42.3%. In assay [1] (1 μM compound), the inhibition at 1 µM is 89%.

For the molecule `CN(C)C(=O)Nc1cc(Nc2ncc(C(N)=O)c(NCc3ccccc3)n2)ccc1Cl` [Example 196, 4-(benzylamino)-2-(4-chloro-3-(3,3-dimethylureido)phenylamino)pyrimidine-5-carboxamide], the concentration for half-maximal inhibition (IC50) on JAK1 fell in the range of 100 to 1000 nM; against JAK2, 100 to 1000 nM; at JAK3 it was 1 to 10 nM; at TYK2, 10 to 100 nM. Also, in assay [1] (200 nM compound), the inhibition at 0.2 µM was 8.3%. Moreover, the inhibition at 1 µM in assay [1] (1 μM compound) was found to be 65%.

`COCC(=O)Nc1ccc(F)c(Nc2ncc(C(N)=O)c(NCc3ccccc3)n2)c1` [Example 172, 4-(benzylamino)-2-(2-fluoro-5-(2-methoxyacetamido)phenylamino)pyrimidine-5-carboxamide]: the IC50 on JAK1 lay within 100 to 1000 nM; at JAK2 it was 100 to 1000 nM; against JAK3, 10 to 100 nM; at TYK2, 100 to 1000 nM. Also, the inhibition at 0.2 µM in assay [1] (200 nM compound) stood at 11.3%. In addition, in assay [1] (1 μM compound), the inhibition at 1 µM is 33%.

In the case of `C[C@@H](Nc1nc(Nc2ccc(Cl)c(NC(N)=O)c2)ncc1C(N)=O)c1ccccc1` [Example 193, (R)-2-(4-chloro-3-ureidophenylamino)-4-(1-phenylethylamino)pyrimidine-5-carboxamide], the IC50 lay within 100 to 1000 nM on JAK1, 100 to 1000 nM against JAK2, 1 to 10 nM against JAK3 and 100 to 1000 nM against TYK2. The inhibition at 0.2 µM in assay [1] (200 nM compound) was determined as 13.7%. Further, the inhibition at 1 µM in assay [1] (1 μM compound) is 51.3%.

As to `CN1CCN(C(=O)Nc2cccc(Nc3ncc(C(N)=O)c(NCc4ccccc4)n3)c2)CC1` [Example 216, 4-(benzylamino)-2-(3-(4-methylpiperazine-1-carboxamido)phenylamino)pyrimidine-5-carboxamide], the IC50 on JAK1 is 10 to 100 nM; against JAK2, 10 to 100 nM; against JAK3, under 1 nM; against TYK2, 1 to 10 nM. In assay [1] (200 nM compound), the inhibition at 0.2 µM was 57.3%. In assay [1] (1 μM compound), the inhibition at 1 µM is 91%.

As to `CC(=O)Nc1ccc(F)c(Nc2ncc(C(N)=O)c(NCc3ccccc3)n2)c1` [Example 171, 2-(5-acetamido-2-fluorophenylamino)-4-(benzylamino)pyrimidine-5-carboxamide], the IC50 lay within 100 to 1000 nM at JAK1, 100 to 1000 nM against JAK2, 10 to 100 nM against JAK3 and 100 to 1000 nM against TYK2. For the same molecule, the inhibition at 0.2 µM in assay [1] (200 nM compound) came to 7.3%. Besides, the inhibition at 1 µM in assay [1] (1 μM compound) was determined as 15.3%.

Take `NC(=O)c1cnc(Nc2cccc(NC(=O)N3CCC3)c2)nc1NCc1ccccc1` [Example 222, 2-(3-(azetidine-1-carboxamido)phenylamino)-4-(benzylamino)pyrimidine-5-carboxamide]: the IC50 at JAK1 was in the range of 10 to 100 nM; at JAK2, 10 to 100 nM; against JAK3 it was 1 to 10 nM; against TYK2 it was 1 to 10 nM. In addition, in assay [1] (200 nM compound), the inhibition at 0.2 µM is 47.7%. Besides, in assay [1] (1 μM compound), the inhibition at 1 µM came out at 86.7%.

As to `NC(=O)c1cnc(Nc2ccc(Cl)c(NC(=O)N3CCC3)c2)nc1NCc1ccccc1` [Example 233, 2-(3-(azetidine-1-carboxamido)-4-chlorophenylamino)-4-(benzylamino)pyrimidine-5-carboxamide], the IC50 at JAK1 lay within 100 to 1000 nM; at JAK2 it was 100 to 1000 nM; on JAK3, 1 to 10 nM; against TYK2, 10 to 100 nM. For the same molecule, the inhibition at 0.2 µM in assay [1] (200 nM compound) stood at 7%. In addition, the inhibition at 1 µM in assay [1] (1 μM compound) turned out to be 37.7%.

Consider `NC(=O)c1cnc(Nc2cccc(NC(=O)N3CCOCC3)c2)nc1NCc1ccccc1` [Example 217, N-(3-(4-(benzylamino)-5-carbamoylpyrimidin-2-ylamino)phenyl)morpholine-4-carboxamide], for which the IC50 was in the range of 10 to 100 nM on JAK1, 10 to 100 nM on JAK2, 1 to 10 nM against JAK3 and 1 to 10 nM against TYK2. Also, in assay [1] (200 nM compound), the inhibition at 0.2 µM was 61.3%. The inhibition at 1 µM in assay [1] (1 μM compound) was determined as 92%.

On to `NC(=O)Nc1cc(Nc2ncc(C(N)=O)c(NCc3ccccc3)n2)ccc1Cl` [Example 194, 4-(benzylamino)-2-(4-chloro-3-ureidophenylamino)pyrimidine-5-carboxamide], for which the IC50 at JAK1 fell in the range of 100 to 1000 nM; against JAK2, 100 to 1000 nM; on JAK3 it was 1 to 10 nM; against TYK2 it was 10 to 100 nM. For the same molecule, in assay [1] (200 nM compound), the inhibition at 0.2 µM stood at 10%. For the same molecule, the inhibition at 1 µM in assay [1] (1 μM compound) came to 22.7%.

Turning to `CN(C)[C@@H]1CCN(C(=O)Nc2cccc(Nc3ncc(C(N)=O)c(NCc4ccccc4)n3)c2)C1` [Example 210, (R)-4-(benzylamino)-2-(3-(3-(dimethylamino)pyrrolidine-1-carboxamido)phenylamino)pyrimidine-5-carboxamide], the IC50 at JAK1 lay in the range of 10 to 100 nM; against JAK2 it was 10 to 100 nM; at JAK3 it was 1 to 10 nM; against TYK2 it was 1 to 10 nM. Further, in assay [1] (200 nM compound), the inhibition at 0.2 µM amounted to 48%. Moreover, the inhibition at 1 µM in assay [1] (1 μM compound) turned out to be 81.7%.
